Key:
paw edema = assay: Anti-inflammatory activity (% inhibition in paw edema); format: in vivo; conditions: dose 40 mg/kg p.o.; albino rats
Description: (§1) Solvents were dried and distilled before use. Dimethyltin(IV) dichloride di-n-butyltin(IV) dichloride, diphenyltin(IV) dichloride, trimethyltin(IV) chloride, tri-i-propyltin(IV) chloride, tri-n-butyltin(IV) chloride, triphenyltin(IV) chloride (E. Merck), di-n-octyltin(IV) oxide (Aldrich), and disodium salt of 5′-guanosine monophosphate (Na2(5′-GMP) (Sigma) were used as received. The elemental analysis, namely, melting points, carbon, hydrogen, nitrogen, and tin of the synthesized compounds was determined on the same instruments as reported earlier. Infrared and far-infrared spectra were recorded on a Perkin-Elmer 1600 series FT IR spectrophotometer in the range 4000–400 cm^−1 from KBr discs and 600–200 cm^−1 from CsI discs. ^1H and ^13C spectra were recorded on a Bruker DRX 300 (300 MHz FT NMR) spectrometer at the Central Drug Research Institute, Lucknow, India, using CD3OD as solvent and TMS as the internal standard. ^119Sn NMR spectra were recorded on a Bruker DRX 500 (500 MHz FT NMR) spectrometer at the Institute Instrumentation Centre, IIT, Roorkee, India, using DMSO-d6/CD3OD as solvent and TMS as the internal standard. ^119Sn Mössbauer spectra were recorded on Mössbauer spectrometer model MS-900 according to the procedure reported previously at the Department of Chemistry and Physics, University of The District of Columbia, Washington, DC, USA [21, 22]. Toxicity (LD50: average lethal dose at 50% survival) and anti-inflammatory activity of the studied derivatives were determined according to the procedures reported earlier.

albino rats = format: in vivo; conditions: p.o.
Description: as §1

[1] = Solubility in organic solvents (observation); format: physicochemical; conditions: for Solubility in DMSO-d6/CDCl3/CD3OD: NMR solvents DMSO-d6/CDCl3/CD3OD
Description: All of the synthesized compounds are obtained as white or cream solid in 65–81% yield and stable towards air and moisture. They are insoluble in common organic solvents but sparingly soluble in DMSO. They decomposed at high temperature instead of melting, which indicates their polymeric nature. […] In the entire studied derivatives one molecule of water is also involved.
The chemical shifts of various magnetically nonequivalent carbons of (5′-GMP)^2− have been assigned in the studied derivatives. The C-5′ resonances in organotin(IV) derivatives of (5′-GMP)^2− are shifted towards downfield upon complexation as compared with that of ligand, which indicate the involvement of phosphate group (PO3)^2− in bonding with tin. While all other carbon shifts remains almost unchanged, the ^13C chemical shifts of alkyl and phenyl groups attached to tin are also observed in the expected regions which are consistent with previously reported values. The characteristic resonances in the ^119Sn NMR spectra of some of the studied derivatives, recorded in dimethylsulfoxide-d 6, are also presented in Table 2. […] The ^119Sn chemical shifts in iso-Pr3Sn(IV), Ph2Sn(IV), and Ph3Sn(IV) derivatives of (5′-GMP)^2− are observed at δ −256, −225, and −226 ppm, which are characteristic of the five-coordinated organotin(IV) derivatives.

Compound | Anti-inflammatory activity % inhibition (paw edema) (paw edema) | Toxicity LD50 (albino rats) | Solubility in DMSO-d6 [1] | Solubility in DMSO-d6/CDCl3/CD3OD [1]
[(Ph3Sn)2(5′-GMP)·H2O]n | 20.63% | >400 mg/kg |  | 
CCCCC1C(=O)N(c2ccccc2)N(c2ccccc2)C1=O [Phenyl butazone, reference compound] | 34.56% |  |  | 
[(Me3Sn)2(5′-GMP)·H2O]n |  |  | poor solubility | extremely low solubility
[Ph2Sn(5′-GMP)·H2O]n | 19.22% | >400 mg/kg |  | 
[(i-Pr3Sn)2(5′-GMP)·H2O]n |  | >400 mg/kg |  | 
[Me2Sn(5′-GMP)·H2O]n | 18.12% | >400 mg/kg | poor solubility | 
[(n-Bu3Sn)2(5′-GMP)·H2O]n | 17.34% | >400 mg/kg | poor solubility | 
[n-Bu2Sn(5′-GMP)·H2O]n | 16.32% | >400 mg/kg | poor solubility | extremely low solubility

From article PMC3767334, “Interaction of 5′-Guanosine Monophosphate with Organotin(IV) Moieties: Synthesis, Structural Characterization, and Anti-Inflammatory Activity” (ISRN Organic Chemistry, 2012)
